{
  "source": "patent US6348445B1",
  "about": "“Biologically active peptides with reduced toxicity in animals and a method for preparing same” (priority 1992, dated 2002)",
  "key": {"[1]": {"tested_on": "S. aureus ATCC 29213", "assay_type": "cell-based", "settings": "ATCC 29213"}, "[2]": {"experiment": "MTD and LD50, single intraperitoneal administration", "assay_type": "in vivo, mice", "settings": "for No. of Survivors Day 1 / No. of Survivors Day 2 / No. of Survivors Day 3 / No. of Survivors Day 4 / No. of Survivors Day 5 / No. of Survivors Day 6 / No. of Survivors Day 7 / No. of Survivors Day 8 / No. of Survivors Day 11: 4 injected", "procedure": "Determinations of a maximal tolerated dose (MTD) of a single intravenous (i.v.) administration or intraperitoneal (i.p.) administration of MSI-344 or MSI-1857 in 100 CD-1®BR mice were done. The MTD of a single intravenous (i.v.) administration was 10 mg/kg for MSI-344 and 60 mg/kg for MSI-1857. The MTD of a single intraperitoneal (i.p.) administration was less than 20 mg/kg for MSI-344 and between 50 and 100 mg/kg for MSI-1857.\nTo determine estimates of MTDs and LD50s of MSI-344 and MSI-1857 administered intravenously or intraperitoneally as a single bolus in mice.\nA 5 mg/mL solution of MSI-344 was made in saline (0.9% sodium chloride injection USP, Abbott, North Chicago, Ill.) corrected for peptide content. Solutions of MSI-344 at concentrations of 4, 3, 2, 1.5, 1, and 0.5 mg/mL were made by diluting the 5 mg/mL solution using saline as diluent. (Errors were made in solution preparation of the 4, 3, and 2 mg/mL solutions and results from groups with animals doses with these solutions, i.e. groups 12, 13, and 14, were eliminated from study analysis). A 20 mg/mL solution of MSI-1857 was made in saline. Solutions of MSI-1857 at concentrations of 15, 10, 8, 6, and 5 mg/mL were made by diluting the 20 mg/mL solution using saline as diluent.\nAnother 5 mg/mL solution of MSI-344 was made in saline corrected for peptide content. Solutions of 4, 3 and 2 mg/mL were made by diluting the 5 mg/mL solution using saline as diluent. A 15 mg/mL solution of MSI-1857 in saline was made corrected for peptide content. A 10 mg/mL solution was made by diluting the 15 mg/mL solution with saline.\nMice (four mice per dose group) were intravenously or intraperitoneally administered a single bolus of MSI-344 or MSI-1857 using an injection volume of 10 mL/kg of the appropriate solution concentration. If the first two mice in a group died immediately (within 10 secs) after administration of a dose then no other mice injected with this dose of this compound (for ethical reasons). Survival was monitored daily for at least eight days post-administration. Study designs are presented in Tables IX and X. Toxicity Study # 262 was a supplement to Toxicity Study #261."}, "[3]": {"settings": "Tox Study 262 group 2, 50 mg/kg IP"}, "[4]": {"settings": "Tox Study 262 group 3, 40 mg/kg IP"}, "[5]": {"settings": "Tox Study 262 group 4, 30 mg/kg IP"}, "[6]": {"settings": "Tox Study 262 group 5, 20 mg/kg IP"}, "[7]": {"settings": "Tox Study #261 group 11, 50 mg/kg IP"}, "[8]": {"settings": "Tox Study #261 group 12, dose TBD (solution error, eliminated from analysis) IP"}, "[9]": {"settings": "Tox Study #261 group 13, dose TBD (solution error, eliminated from analysis) IP"}, "[10]": {"settings": "Tox Study #261 group 14, dose TBD (solution error, eliminated from analysis) IP"}},
  "note": "Where no end group is shown, it is not given here.",
  "data": [
    {"sequence": "GIGKFLKKAKKFGKAFVKILKK [MSI-344]", "values": [
      {"measurement": "MIC S. aureus ATCC 29213", "setting": "[1]", "value": 128, "unit": "µg/mL"},
      {"measurement": "No. of Survivors Day 1", "setting": "[2]; [3]", "value": 0},
      {"measurement": "No. of Survivors Day 2", "setting": "[2]; [3]", "value": 0},
      {"measurement": "No. of Survivors Day 3", "setting": "[2]; [3]", "value": 0},
      {"measurement": "No. of Survivors Day 4", "setting": "[2]; [3]", "value": 0},
      {"measurement": "No. of Survivors Day 5", "setting": "[2]; [3]", "value": 0},
      {"measurement": "No. of Survivors Day 6", "setting": "[2]; [3]", "value": 0},
      {"measurement": "No. of Survivors Day 7", "setting": "[2]; [3]", "value": 0},
      {"measurement": "No. of Survivors Day 8", "setting": "[2]; [3]", "value": 0},
      {"measurement": "No. of Survivors Day 11", "setting": "[2]; [3]", "value": 0},
      {"measurement": "No. of Survivors Day 1", "setting": "[2]; [4]", "value": 0},
      {"measurement": "No. of Survivors Day 2", "setting": "[2]; [4]", "value": 0},
      {"measurement": "No. of Survivors Day 3", "setting": "[2]; [4]", "value": 0},
      {"measurement": "No. of Survivors Day 4", "setting": "[2]; [4]", "value": 0},
      {"measurement": "No. of Survivors Day 5", "setting": "[2]; [4]", "value": 0},
      {"measurement": "No. of Survivors Day 6", "setting": "[2]; [4]", "value": 0},
      {"measurement": "No. of Survivors Day 7", "setting": "[2]; [4]", "value": 0},
      {"measurement": "No. of Survivors Day 8", "setting": "[2]; [4]", "value": 0},
      {"measurement": "No. of Survivors Day 11", "setting": "[2]; [4]", "value": 0},
      {"measurement": "No. of Survivors Day 1", "setting": "[2]; [5]", "value": 0},
      {"measurement": "No. of Survivors Day 2", "setting": "[2]; [5]", "value": 0},
      {"measurement": "No. of Survivors Day 3", "setting": "[2]; [5]", "value": 0},
      {"measurement": "No. of Survivors Day 4", "setting": "[2]; [5]", "value": 0},
      {"measurement": "No. of Survivors Day 5", "setting": "[2]; [5]", "value": 0},
      {"measurement": "No. of Survivors Day 6", "setting": "[2]; [5]", "value": 0},
      {"measurement": "No. of Survivors Day 7", "setting": "[2]; [5]", "value": 0},
      {"measurement": "No. of Survivors Day 8", "setting": "[2]; [5]", "value": 0},
      {"measurement": "No. of Survivors Day 11", "setting": "[2]; [5]", "value": 0},
      {"measurement": "No. of Survivors Day 1", "setting": "[2]; [6]", "value": 3},
      {"measurement": "No. of Survivors Day 2", "setting": "[2]; [6]", "value": 3},
      {"measurement": "No. of Survivors Day 3", "setting": "[2]; [6]", "value": 3},
      {"measurement": "No. of Survivors Day 4", "setting": "[2]; [6]", "value": 3},
      {"measurement": "No. of Survivors Day 5", "setting": "[2]; [6]", "value": 3},
      {"measurement": "No. of Survivors Day 6", "setting": "[2]; [6]", "value": 3},
      {"measurement": "No. of Survivors Day 7", "setting": "[2]; [6]", "value": 3},
      {"measurement": "No. of Survivors Day 8", "setting": "[2]; [6]", "value": 3},
      {"measurement": "No. of Survivors Day 11", "setting": "[2]; [6]", "value": 3},
      {"measurement": "No. of Survivors Day 1", "setting": "[2]; [7]", "value": 0},
      {"measurement": "No. of Survivors Day 2", "setting": "[2]; [7]", "value": 0},
      {"measurement": "No. of Survivors Day 3", "setting": "[2]; [7]", "value": 0},
      {"measurement": "No. of Survivors Day 4", "setting": "[2]; [7]", "value": 0},
      {"measurement": "No. of Survivors Day 5", "setting": "[2]; [7]", "value": 0},
      {"measurement": "No. of Survivors Day 6", "setting": "[2]; [7]", "value": 0},
      {"measurement": "No. of Survivors Day 7", "setting": "[2]; [7]", "value": 0},
      {"measurement": "No. of Survivors Day 8", "setting": "[2]; [7]", "value": 0},
      {"measurement": "No. of Survivors Day 1", "setting": "[2]; [8]", "value": 2},
      {"measurement": "No. of Survivors Day 2", "setting": "[2]; [8]", "value": 1},
      {"measurement": "No. of Survivors Day 3", "setting": "[2]; [8]", "value": 1},
      {"measurement": "No. of Survivors Day 4", "setting": "[2]; [8]", "value": 1},
      {"measurement": "No. of Survivors Day 5", "setting": "[2]; [8]", "value": 1},
      {"measurement": "No. of Survivors Day 6", "setting": "[2]; [8]", "value": 1},
      {"measurement": "No. of Survivors Day 7", "setting": "[2]; [8]", "value": 1},
      {"measurement": "No. of Survivors Day 8", "setting": "[2]; [8]", "value": 1},
      {"measurement": "No. of Survivors Day 1", "setting": "[2]; [9]", "value": 0},
      {"measurement": "No. of Survivors Day 2", "setting": "[2]; [9]", "value": 0},
      {"measurement": "No. of Survivors Day 3", "setting": "[2]; [9]", "value": 0},
      {"measurement": "No. of Survivors Day 4", "setting": "[2]; [9]", "value": 0},
      {"measurement": "No. of Survivors Day 5", "setting": "[2]; [9]", "value": 0},
      {"measurement": "No. of Survivors Day 6", "setting": "[2]; [9]", "value": 0},
      {"measurement": "No. of Survivors Day 7", "setting": "[2]; [9]", "value": 0},
      {"measurement": "No. of Survivors Day 8", "setting": "[2]; [9]", "value": 0},
      {"measurement": "No. of Survivors Day 1", "setting": "[2]; [10]", "value": 2},
      {"measurement": "No. of Survivors Day 2", "setting": "[2]; [10]", "value": 1},
      {"measurement": "No. of Survivors Day 3", "setting": "[2]; [10]", "value": 1},
      {"measurement": "No. of Survivors Day 4", "setting": "[2]; [10]", "value": 1},
      {"measurement": "No. of Survivors Day 5", "setting": "[2]; [10]", "value": 1},
      {"measurement": "No. of Survivors Day 6", "setting": "[2]; [10]", "value": 1},
      {"measurement": "No. of Survivors Day 7", "setting": "[2]; [10]", "value": 1},
      {"measurement": "No. of Survivors Day 8", "setting": "[2]; [10]", "value": 1},
      {"measurement": "LD50", "setting": "[2]; mouse, in vivo, ip, CD-1 mice, estimated from dose response curves", "value": 23.5, "unit": "mg/kg"},
      {"measurement": "MTD", "setting": "[2]; mouse, in vivo, ip, CD-1 mice, read-out: MTD of a single intraperitoneal (i.p.) administration", "value": "< 20", "unit": "mg/kg"}
    ]}
  ]
}
